Data as given in patent EP1247803A2, “Indolinone compounds suitable for modulation of protein kinases” (Sugen, Inc., priority 1996, dated 1998).

Assays:
MET = MET biochemical kinase assay; set-up: species or system human; concentration or dose not given beside the values
Method in brief: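 Human MET was captured from cell lysates onto ELISA plates via goat anti-rabbit Fc and rabbit polyclonal antibody to the MET cytoplasmic domain. After washing, test compounds and kinase buffer with ATP and divalent metal ions were added. Phosphotyrosine was detected with HRP-conjugated anti-phosphotyrosine antibody and TMB colorimetric read-out.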

PDGF-R = PDGF-R (Homo sapiens, UniProt P09619); assay: PDGF-R ELISA; assay type: cell-based
Chain of PDGF-R (P09619 33-1106, species assumed): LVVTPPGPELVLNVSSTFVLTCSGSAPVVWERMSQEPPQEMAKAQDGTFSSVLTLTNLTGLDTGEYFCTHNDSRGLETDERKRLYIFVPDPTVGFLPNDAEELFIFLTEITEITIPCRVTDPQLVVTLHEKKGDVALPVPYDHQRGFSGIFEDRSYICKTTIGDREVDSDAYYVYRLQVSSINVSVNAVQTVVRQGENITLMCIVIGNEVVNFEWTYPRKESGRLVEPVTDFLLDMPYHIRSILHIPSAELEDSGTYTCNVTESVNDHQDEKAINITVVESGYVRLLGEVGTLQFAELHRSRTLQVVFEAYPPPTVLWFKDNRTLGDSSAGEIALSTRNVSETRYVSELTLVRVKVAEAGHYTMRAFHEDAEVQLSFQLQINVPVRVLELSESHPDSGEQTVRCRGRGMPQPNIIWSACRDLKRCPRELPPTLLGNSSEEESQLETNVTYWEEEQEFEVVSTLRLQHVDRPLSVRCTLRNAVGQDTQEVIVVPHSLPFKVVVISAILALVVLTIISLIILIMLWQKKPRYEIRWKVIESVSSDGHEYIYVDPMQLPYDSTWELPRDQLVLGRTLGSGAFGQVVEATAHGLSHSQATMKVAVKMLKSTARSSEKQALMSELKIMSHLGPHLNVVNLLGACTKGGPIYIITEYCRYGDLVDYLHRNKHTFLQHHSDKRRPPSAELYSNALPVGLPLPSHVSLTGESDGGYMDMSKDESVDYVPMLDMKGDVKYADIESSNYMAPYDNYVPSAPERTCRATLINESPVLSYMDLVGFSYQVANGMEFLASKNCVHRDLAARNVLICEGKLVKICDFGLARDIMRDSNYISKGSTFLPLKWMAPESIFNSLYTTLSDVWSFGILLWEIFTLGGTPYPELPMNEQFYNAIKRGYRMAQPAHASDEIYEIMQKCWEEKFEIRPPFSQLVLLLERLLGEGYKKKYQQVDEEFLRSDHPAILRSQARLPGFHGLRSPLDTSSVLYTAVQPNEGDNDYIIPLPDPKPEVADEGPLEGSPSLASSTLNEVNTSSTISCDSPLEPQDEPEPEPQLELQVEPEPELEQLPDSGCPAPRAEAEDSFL
Text: A PDGF-R ELISA is described in International Patent Publication No. WO 96/40116, published December 19, 1996 by Tang et al.

EGFR = molecular target: T1, EGFR (Homo sapiens, UniProt P00533); assay: EGFR ELISA assay (in vitro kinase activity, EGFR captured from A431 cell lysate); assay type: biochemical; set-up: concentration or dose not given beside the values
T1 construct: Add 7 ug A431 cell lysate per well (EGFR source); endogenous in cells; host or cells: A431
T1 sequence (P00533 25-1210): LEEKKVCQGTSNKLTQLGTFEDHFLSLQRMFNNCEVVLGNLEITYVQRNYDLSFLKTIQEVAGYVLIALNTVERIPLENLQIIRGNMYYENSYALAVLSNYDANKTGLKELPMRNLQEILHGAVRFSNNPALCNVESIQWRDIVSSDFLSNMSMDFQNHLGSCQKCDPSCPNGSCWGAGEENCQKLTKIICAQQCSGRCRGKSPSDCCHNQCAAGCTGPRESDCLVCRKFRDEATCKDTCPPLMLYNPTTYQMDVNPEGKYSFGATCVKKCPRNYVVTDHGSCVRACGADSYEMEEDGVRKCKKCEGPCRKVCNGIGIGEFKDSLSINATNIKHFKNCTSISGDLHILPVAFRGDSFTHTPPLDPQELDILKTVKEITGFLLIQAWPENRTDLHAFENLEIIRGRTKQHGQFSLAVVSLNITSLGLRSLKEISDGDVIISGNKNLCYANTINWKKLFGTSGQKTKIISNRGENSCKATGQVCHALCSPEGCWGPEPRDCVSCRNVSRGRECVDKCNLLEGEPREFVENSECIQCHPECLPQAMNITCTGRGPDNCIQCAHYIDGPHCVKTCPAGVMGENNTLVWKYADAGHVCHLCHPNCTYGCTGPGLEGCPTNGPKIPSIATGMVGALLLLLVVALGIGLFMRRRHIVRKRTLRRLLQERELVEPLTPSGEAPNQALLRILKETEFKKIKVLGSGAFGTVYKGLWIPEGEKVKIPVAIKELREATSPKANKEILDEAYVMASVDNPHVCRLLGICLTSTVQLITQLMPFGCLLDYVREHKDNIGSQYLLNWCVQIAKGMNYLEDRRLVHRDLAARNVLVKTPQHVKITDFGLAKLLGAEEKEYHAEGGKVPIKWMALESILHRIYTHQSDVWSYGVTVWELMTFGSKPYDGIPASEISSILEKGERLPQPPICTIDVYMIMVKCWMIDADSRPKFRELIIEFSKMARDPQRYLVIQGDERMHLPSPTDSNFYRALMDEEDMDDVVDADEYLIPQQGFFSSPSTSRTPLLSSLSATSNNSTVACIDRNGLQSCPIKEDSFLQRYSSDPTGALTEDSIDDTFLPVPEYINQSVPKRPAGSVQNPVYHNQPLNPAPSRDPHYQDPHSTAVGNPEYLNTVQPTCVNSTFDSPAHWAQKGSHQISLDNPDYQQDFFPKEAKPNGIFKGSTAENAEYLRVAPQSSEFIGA
Method in brief: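 EGFR from A431 lysate was captured on anti-EGFR antibody-coated plates and preincubated with compounds for 30 min. Autophosphorylation ran 5 min with 3 uM ATP and 5 mM MnCl2 (final), stopped with 20 mM EDTA. Phosphotyrosine was detected by anti-pTyr ELISA with ABTS/H2O2, read at 410 nm.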

SMILES | Met Kinase % Inhibition (MET) [%] | PDGF Kinase %Inhibition (PDGF-R) [%] | Biochem EGFR %Inhibition (EGFR) [%]
O=C1Nc2ccc(I)cc2C1=CC1C=CCCC1 (stereo not shown) [10729/B11] | 36.6 | 4.2 | 18.8
CNS(=O)(=O)c1ccc2c(c1)C(=Cc1c(OC)ccc3ccccc13)C(=O)N2 [10729/D02] | 31.7 | 15.6 | -5.7
O=C1Nc2c(Br)cc(Br)cc2C1=Cc1ccc([N+](=O)[O-])o1 [10718/A11] | 58.9 | – | 21.2
O=C1Nc2ccc(I)cc2C1=Cc1ccncc1 [10729/B09] | 47.2 | -6.4 | 51.6
O=C1Nc2ccc(CCCl)cc2C1=Cc1cc(C(F)(F)F)ccc1F [10728/G08] | 42.3 | -11.9 | -5.7
CNS(=O)(=O)c1ccc2c(c1)C(=Cc1cccnc1)C(=O)N2 [10729/D08] | 27.6 | -21.1 | 10.3
CNS(=O)(=O)c1ccc2c(c1)C(=Cc1ccccc1OCC(=O)O)C(=O)N2 [10728/D10] | 30.5 | -3.9 | 18.6
O=C1Nc2ccc(I)cc2C1=Cc1cccc(Oc2ccccc2)c1 [10729/B06] | 61.1 | -19.2 | 56.9
O=C1Nc2ccc(S(=O)(=O)Nc3ccc(C(F)(F)F)cc3)cc2C1=Cc1c(F)cccc1C(F)(F)F [10728/E09] | 40.0 | 22.3 | 0.1
CCOC(=O)c1c(C)[nH]c(C=C2C(=O)Nc3ccc(I)cc32)c1C [10718/B02] | 52.9 | – | 24.9
O=C1Nc2c(Br)cc(Br)cc2C1=Cc1cccnc1 [10729/A08] | 48.1 | -23.4 | 37.8
O=C1Nc2c(Br)cc(Br)cc2C1=CC1C=CCCC1 (stereo not shown) [10729/A11] | 49.9 | -11.7 | 15.5
COc1cc(C=C2C(=O)Nc3ccc(CCCl)cc32)cc(OC)c1 [10728/G04] | 20.9 | 0.5 | -8.2
COc1ccc(OC)c(C=C2C(=O)Nc3ccc(S(=O)(=O)Nc4ccc(C(F)(F)F)cc4)cc32)c1 [10728/E02] | 5.4 | 15.2 | 7.4
Cc1ccsc1C=C1C(=O)Nc2c(Br)cc(Br)cc21 [10729/A05] | 38.8 | -6.8 | 23.4
COc1cc(N(C)C)ccc1C=C1C(=O)Nc2ccc(CCCl)cc21 [10728/G05] | 63.1 | -4.4 | 7.2
O=C1Nc2c(Br)cc(Br)cc2C1=Cc1ccc(N2CCCC2)cc1 [10729/A10] | 34.8 | -12.8 | 28.7
Cc1c(Br)ccc2c1C(=Cc1ccc(N3CCCC3)cc1)C(=O)N2 [10729/C10] | 15.8 | 3.5 | 45.7
COc1ccc(C=C2C(=O)Nc3ccc(S(=O)(=O)Nc4ccc(C(F)(F)F)cc4)cc32)c2ccccc12 [10729/E03] | 27.5 | 29.2 | 20.1
Cc1ccc(C=C2C(=O)Nc3c(Br)cc(Br)cc32)s1 [10717/A07] | 29.2 | – | 20.2
O=C1Nc2c(Br)cc(Br)cc2C1=Cc1ccccn1 [10729/A07] | 51.1 | -36.7 | 49.0
CSc1ccc(C=C2C(=O)Nc3ccc(S(=O)(=O)Nc4ccc(C(F)(F)F)cc4)cc32)cc1 [10729/E04] | 9.8 | 26.5 | 19.5
Cc1c(O)ccc(C=C2C(=O)Nc3c(Br)cc(Br)cc32)c1O [10718/A09] | 67.7 | – | -4.1
CNS(=O)(=O)c1ccc2c(c1)C(=Cc1cc(C(F)(F)F)ccc1F)C(=O)N2 [10728/D08] | 34.7 | 2.7 | 6.9
CSc1ccc(C=C2C(=O)Nc3ccc(I)cc32)cc1 [10729/B04] | 43.8 | -22.7 | 63.7

SMILES | Met Kinase % Inhibition (MET) [%] | PDGF Kinase %Inhibition (PDGF-R) [%] | Biochem EGFR %Inhibition (EGFR) [%]
COc1ccc2ccccc2c1C=C1C(=O)Nc2c(Br)cc(Br)cc21 [10729/A02] | 28.1 | -25.7 | 10.0
COc1cc(C=C2C(=O)Nc3ccc(CCCl)cc32)cc2c1OCO2 [10728/G11] | 71.4 | -12.8 | 16.1
CNS(=O)(=O)c1ccc2c(c1)C(=Cc1ccc(SC)cc1)C(=O)N2 [10729/D04] | 33.1 | -12.8 | 18.8
Cc1ccsc1C=C1C(=O)Nc2ccc(S(=O)(=O)Nc3ccc(C(F)(F)F)cc3)cc21 [10729/E05] | 13.4 | 29.9 | 12.6
COc1ccc2ccccc2c1C=C1C(=O)Nc2ccc(I)cc21 [10729/B02] | 77.2 | -10.2 | 34.9
CNS(=O)(=O)c1ccc2c(c1)C(=CC1C=CCCC1)C(=O)N2 (stereo not shown) [10729/D11] | 18.8 | 0.1 | 19.2
O=C1Nc2ccc(S(=O)(=O)Nc3ccc(C(F)(F)F)cc3)cc2C1=Cc1ccc2c(c1)Cc1ccccc1-2 [10728/E06] | 26.4 | 12.0 | -4.7
CNS(=O)(=O)c1ccc2c(c1)C(=Cc1ccncc1)C(=O)N2 [10729/D09] | 34.8 | -12.1 | 22.1
O=C1Nc2ccc(CCCl)cc2C1=Cc1cccc(C(F)(F)F)c1F [10728/G07] | 42.4 | -17.3 | -12.3
CNS(=O)(=O)c1ccc2c(c1)C(=Cc1ccccn1)C(=O)N2 [10729/D07] | 25.5 | -20.0 | 21.4
CNS(=O)(=O)c1ccc2c(c1)C(=Cc1cccc(Oc3ccccc3)c1)C(=O)N2 [10729/D06] | 30.2 | 2.7 | 45.7
COc1cc(N(C)C)ccc1C=C1C(=O)Nc2ccc(S(=O)(=O)Nc3ccc(C(F)(F)F)cc3)cc21 [10728/E05] | 53.4 | 5.8 | 7.4
CNS(=O)(=O)c1ccc2c(c1)C(=Cc1ccc(N3CCCC3)cc1)C(=O)N2 [10729/D10] | 36.1 | -11.3 | 11.3
O=C1Nc2c(Br)cc(Br)cc2C1=Cc1cccc(Oc2ccccc2)c1 [10729/A06] | 29.8 | -8.6 | 36.5
CSc1ccc(C=C2C(=O)Nc3c(Br)cc(Br)cc32)cc1 [10729/A04] | 45.4 | -16.6 | 58.8
O=C1Nc2c(Br)cc(Br)cc2C1=Cc1ccncc1 [10729/A09] | 80.3 | 11.0 | 25.7
CNS(=O)(=O)c1ccc2c(c1)C(=Cc1sccc1C)C(=O)N2 [10729/D05] | 28.1 | 2.3 | 22.1
O=C1Nc2ccc(S(=O)(=O)Nc3ccc(C(F)(F)F)cc3)cc2C1=Cc1cc(C(F)(F)F)ccc1F [10728/E08] | 46.3 | 29.4 | 5.1
CNS(=O)(=O)c1ccc2c(c1)C(=Cc1cc(OC)c3c(c1)OCO3)C(=O)N2 [10728/D11] | 52.5 | -10.2 | 22.1
CSc1ccc(C=C2C(=O)Nc3ccc(Br)c(C)c32)cc1 [10729/C04] | 20.7 | 4.2 | 35.9
O=C1Nc2ccc(I)cc2C1=Cc1ccccn1 [10729/B07] | 58.2 | -33.2 | 69.0
COc1cc(Br)c(O)c(C=C2C(=O)Nc3ccc(I)cc32)c1 [10718/B03] | 77.9 | – | -0.2
O=C1Nc2c(Br)cc(Br)cc2C1=Cc1ccco1 [10718/A10] | 77.9 | – | 41.5
O=C1Nc2ccc(I)cc2C1=Cc1ccc2ccccc2c1O [10718/B04] | 63.9 | – | 8.5
CCOC(=O)c1cc(C=C2C(=O)Nc3ccc(I)cc32)oc1C [10718/B06] | 78.4 | – | 28.5
